This is an account of results in US9822127B2, “GAK modulators as antivirals” (Katholieke Universiteit Leuven, priority 2014, dated 2017).

Each structure is given as a SMILES string. ≈ marks a conversion by molar mass, not a printed value. Like-named read-outs stand apart in the source and are kept apart here.

Data set [1] concerns the target EGFR (Homo sapiens, UniProt P00533). Kind of data set: Affinity for EGFR / anti-EGFR activity. In kind it is binding.
Data set [2] concerns Huh-7 cells. Kind of data set: Viability assay, alamarBlue, DENV infected Huh-7 cells. The conditions noted are these: 72 hours. In general terms: Resazurin is reduced to fluorescent resorufin, in cell work by metabolically active cells.
Data set [3] concerns the target T1, GAK (Homo sapiens, UniProt O14976).
T1 construct: made in house; host or cells: T7 phage grown in E. coli host derived from BL21
T1 sequence (O14976 1-1311): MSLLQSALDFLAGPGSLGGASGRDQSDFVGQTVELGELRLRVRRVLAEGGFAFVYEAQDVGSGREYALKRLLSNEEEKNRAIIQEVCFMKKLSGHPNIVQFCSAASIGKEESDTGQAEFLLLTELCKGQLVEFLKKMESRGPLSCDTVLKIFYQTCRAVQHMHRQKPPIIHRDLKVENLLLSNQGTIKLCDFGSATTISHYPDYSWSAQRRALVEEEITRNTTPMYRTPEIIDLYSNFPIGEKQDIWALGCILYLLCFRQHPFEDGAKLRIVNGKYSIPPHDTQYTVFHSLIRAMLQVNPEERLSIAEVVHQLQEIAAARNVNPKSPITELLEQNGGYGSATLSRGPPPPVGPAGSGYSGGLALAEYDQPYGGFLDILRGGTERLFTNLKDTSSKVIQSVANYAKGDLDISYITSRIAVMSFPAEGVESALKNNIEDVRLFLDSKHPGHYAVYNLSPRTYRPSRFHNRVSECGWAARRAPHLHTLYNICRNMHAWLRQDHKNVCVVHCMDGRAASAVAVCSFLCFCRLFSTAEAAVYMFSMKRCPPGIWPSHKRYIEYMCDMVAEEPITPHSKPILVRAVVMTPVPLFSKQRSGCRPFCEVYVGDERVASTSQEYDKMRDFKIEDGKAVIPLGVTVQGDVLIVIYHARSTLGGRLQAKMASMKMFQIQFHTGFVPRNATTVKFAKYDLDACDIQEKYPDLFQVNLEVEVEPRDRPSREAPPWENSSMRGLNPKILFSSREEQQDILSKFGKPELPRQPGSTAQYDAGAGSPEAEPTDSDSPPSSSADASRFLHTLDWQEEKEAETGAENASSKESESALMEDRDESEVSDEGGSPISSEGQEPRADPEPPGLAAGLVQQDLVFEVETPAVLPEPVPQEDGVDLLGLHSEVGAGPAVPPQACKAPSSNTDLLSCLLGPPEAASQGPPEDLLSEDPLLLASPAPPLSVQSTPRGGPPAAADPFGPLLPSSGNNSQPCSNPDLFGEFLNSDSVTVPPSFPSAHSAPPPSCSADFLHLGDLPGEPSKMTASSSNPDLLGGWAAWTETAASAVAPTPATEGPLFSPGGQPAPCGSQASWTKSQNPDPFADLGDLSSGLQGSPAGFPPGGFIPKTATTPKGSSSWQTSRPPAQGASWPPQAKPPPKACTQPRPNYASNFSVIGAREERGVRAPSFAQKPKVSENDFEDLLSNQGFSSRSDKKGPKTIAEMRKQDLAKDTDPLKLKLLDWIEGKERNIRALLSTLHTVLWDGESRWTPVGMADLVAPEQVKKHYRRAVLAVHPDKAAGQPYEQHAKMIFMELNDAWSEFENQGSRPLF
Kind of data set: GAK binding assay (T7 phage kinase competition binding). The conditions noted are these: for remaining binding at 10 µM: single concentration of 10 μM, lower numbers indicate stronger hits.

Data set [4] deals with HCV RNA replication. Kind of data set: HCV RNA replication by luciferase assays. Conditions: 72 hours postelectroporation, daily treatment. In kind it is cell-based.
Data set [5] has as its system Vero76. The conditions noted are these: African green monkey.
Data set [6] is described as follows: in vitro. The conditions noted are these: African green monkey.
Data set [7] deals with Huh-7.5 cells. Conditions: human.
Data set [8] has as its system SARS Coronavirus (Virus strain: Urbani). Kind of data set: microbe, parasite or virus in culture. In kind it is cell-based.
Data set [9] has as its system AP2M1 phosphorylation. Kind of data set: AP2M1 phosphorylation by Western analysis in Huh-7.5 cells. The class given is cell-based, human. The conditions noted are these: calyculin A, vs DMSO control.
Data set [10] has as its system Huh-7.5 cells. Kind of data set: Viability assay, alamarBlue, Huh-7.5 cells. Conditions: HCVpp entry experiment.
In data set [11] the test system is cell culture grown DENV. Kind of data set: DENV infection of Huh-7 cells, Renilla luciferase assay. In kind it is cell-based. Conditions: Dengue virus, Huh-7, 72 h, read-out: EC50, DENV infection.
Data set [12] has as its system VSV-EB GFP-reporter virus (VSV bearing surface glycoprotein of EBOV). The class given is cell-based, Ebola virus.
[13] abbreviates: Severe acute respiratory syndrome coronavirus, Vero 76.

Sequence of EGFR (P00533 25-1210): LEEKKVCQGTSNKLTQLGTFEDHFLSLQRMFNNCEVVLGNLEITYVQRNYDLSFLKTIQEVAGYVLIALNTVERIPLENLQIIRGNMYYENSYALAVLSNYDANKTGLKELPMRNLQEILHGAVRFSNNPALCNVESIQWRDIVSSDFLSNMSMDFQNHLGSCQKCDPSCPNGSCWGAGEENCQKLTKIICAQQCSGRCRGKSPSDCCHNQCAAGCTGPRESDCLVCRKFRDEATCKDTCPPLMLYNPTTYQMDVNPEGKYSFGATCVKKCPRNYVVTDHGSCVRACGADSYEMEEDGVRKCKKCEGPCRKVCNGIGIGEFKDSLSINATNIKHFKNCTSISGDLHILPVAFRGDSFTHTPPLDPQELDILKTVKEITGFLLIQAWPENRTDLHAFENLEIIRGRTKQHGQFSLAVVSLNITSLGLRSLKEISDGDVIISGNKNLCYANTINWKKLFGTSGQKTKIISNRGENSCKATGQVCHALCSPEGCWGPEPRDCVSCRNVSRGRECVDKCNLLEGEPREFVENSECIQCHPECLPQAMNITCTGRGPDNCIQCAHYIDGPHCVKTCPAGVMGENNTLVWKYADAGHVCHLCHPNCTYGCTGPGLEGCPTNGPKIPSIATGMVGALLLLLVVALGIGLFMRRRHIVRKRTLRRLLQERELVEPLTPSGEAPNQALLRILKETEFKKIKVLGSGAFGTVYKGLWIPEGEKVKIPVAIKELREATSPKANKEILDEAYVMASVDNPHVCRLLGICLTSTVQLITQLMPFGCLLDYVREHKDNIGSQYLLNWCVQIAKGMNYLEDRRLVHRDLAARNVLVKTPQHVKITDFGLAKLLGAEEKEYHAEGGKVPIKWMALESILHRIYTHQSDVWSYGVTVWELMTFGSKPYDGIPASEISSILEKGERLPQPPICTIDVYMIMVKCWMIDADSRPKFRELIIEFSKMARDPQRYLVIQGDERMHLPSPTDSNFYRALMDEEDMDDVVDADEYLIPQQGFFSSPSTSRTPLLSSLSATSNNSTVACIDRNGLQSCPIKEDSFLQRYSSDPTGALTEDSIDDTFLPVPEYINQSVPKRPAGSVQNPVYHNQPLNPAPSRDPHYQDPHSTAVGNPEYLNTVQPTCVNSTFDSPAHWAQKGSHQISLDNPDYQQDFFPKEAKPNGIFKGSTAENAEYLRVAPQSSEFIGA

For the molecule `COc1cc(-c2cnc3c(N4CCOCC4)snc3c2)cc(OC)c1OC` [Example 49, 4-(6-(3,4,5-Trimethoxyphenyl)isothiazolo[4,3-b]pyridin-3-yl)morpholine], the anti-EGFR activity entry in data set [1] was “lack anti-EGFR activity”. In addition, the “effect on cellular viability” value in data set [2] and in [10] was “minimal effect on cellular viability” each time. Moreover, binding in data set [3] was put at a Kd of 8.3 nM. Further, the remaining binding at 10 µM in data set [3] (read-out: % Ctrl) came to 0%. The “effect on HCV RNA replication” value in [4] is given as “did not affect HCV RNA replication”. Also, the CC50 in data set [5] was 50 µg/mL (≈ 129 µM); in [6], 34 µg/mL (≈ 87.8 µM); in [7] it was 23300 ± 3400 nM. Moreover, the figures for the EC50 in data set [8], in data set [8] (setting [13]) and in data set [11] were 0.77 µg/mL (≈ 1.99 µM), 1.2 µg/mL (≈ 3.1 µM) and 800 nM, respectively. For the same molecule, the “p-AP2M1 to AP2M1 ratios” value in data set [9] is “reduced by either 49 or 50 in a dose-dependent manner”.
As for `COc1cc(-c2cnc3c(N4CCOCC4)snc3c2)ccc1N` [Example 50, 2-Methoxy-4-(3-morpholinoisothiazolo[4,3-]pyridin-6-yl)aniline], in data set [12], the “effect on VSV-EB infection, treatment alone” value was “minimal inhibition of infection”. Also, in data set [1], the anti-EGFR activity entry is “lack anti-EGFR activity”. Binding in [3] was characterised by a dissociation constant (Kd) of 8.9 nM. Besides, the % of control binding at 10 µM in [3] (read-out: % Ctrl) is 0%. In data set [4], the “effect on HCV RNA replication” value was “did not affect HCV RNA replication”. In addition, the CC50 came out at 13 µg/mL (≈ 38 µM) in data set [5] and 15 µg/mL (≈ 43.8 µM) in data set [6]. The half-maximal effective concentration (EC50) (in general, the concentration that produces a half-maximal response) in data set [8] came to 3.2 µg/mL (≈ 9.35 µM); in [8] (setting [13]), 2.4 µg/mL (≈ 7.01 µM); in [11] it was 2600 nM.
For the molecule `c1cc(-c2cnc3c(N4CCOCC4)snc3c2)co1` [Example 52, 4-(6-(Furan-3-yl)isothiazolo[4,3-b]pyridin-3-yl)morpholine], the remaining binding at 10 µM in [3] (read-out: % Ctrl) was 0.15%. Besides, the CC50 in [5] and in [6] was greater than 100 µg/mL throughout. For the same molecule, the concentration giving a half-maximal response (EC50) in data set [8] was 49 µg/mL (≈ 171 µM); in [8] (setting [13]), 44 µg/mL (≈ 153 µM).
Taken in the same sequence, the figures for `COc1ccc(-c2cnc3c(NCCc4ccccc4)snc3c2)cc1OC` [Example 74, 6-(3,4-dimethoxyphenyl)-N-phenethylisothiazolo[4,3-b]pyridin-3-amine] were 81%, greater than 100 µg/mL, greater than 100 µg/mL, 5.8 µg/mL (≈ 14.8 µM) and 4.5 µg/mL (≈ 11.5 µM).
